Assay results taken from ChEMBL document CHEMBL5046278, “Synthesis and Evaluation of Novel Tetrahydronaphthyridine CXCR4 Antagonists with Improved Drug-like Profiles” (J Med Chem, 2022).

Columns and labels:
[1] = Oral bioavailability in mouse at 30 mg/kg measured at 24 hrs by LC-MS/MS analysis; format: ADME, organism-based; settings: in vivo
[2] = biological target: Kappa-type opioid receptor (Homo sapiens, UniProt P41145); assay: Inhibition of kappa opioid receptor (unknown origin)
[3] = Oral bioavailability in mouse at 3 mg/kg measured at 24 hrs by LC-MS/MS analysis; format: ADME, organism-based; settings: in vivo
[4] = AUC(0 to 8 h)in mouse plasma at 3 mg/kg, po measured at 24 hrs by LC-MS/MS analysis; format: ADME, organism-based; set-up: route oral, dose 3 mg/kg, time 24 hrs; settings: in vivo
[5] = biological target: T1, Muscarinic acetylcholine receptor M2 (Homo sapiens, UniProt P08172); assay: Inhibition of M2 mAChR receptor (unknown origin)
T1 sequence (P08172 whole entry): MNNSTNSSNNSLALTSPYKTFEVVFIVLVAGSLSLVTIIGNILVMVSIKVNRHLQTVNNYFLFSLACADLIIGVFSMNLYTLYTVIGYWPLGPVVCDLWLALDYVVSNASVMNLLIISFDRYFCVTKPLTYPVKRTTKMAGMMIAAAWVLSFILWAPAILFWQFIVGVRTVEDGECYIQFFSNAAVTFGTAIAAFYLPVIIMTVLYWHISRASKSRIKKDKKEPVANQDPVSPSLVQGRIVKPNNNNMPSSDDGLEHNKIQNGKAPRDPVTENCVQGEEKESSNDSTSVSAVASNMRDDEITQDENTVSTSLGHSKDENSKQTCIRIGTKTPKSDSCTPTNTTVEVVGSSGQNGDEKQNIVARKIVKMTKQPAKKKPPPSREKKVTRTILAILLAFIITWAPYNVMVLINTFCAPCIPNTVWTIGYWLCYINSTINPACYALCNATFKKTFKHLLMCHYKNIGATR

[6] = Drug concentration in mouse plasma at 30 mg/kg, po measured at 12 hrs by LC-MS analysis; format: ADME, organism-based
[7] = biological target: Mu-type opioid receptor (Homo sapiens, UniProt P35372); assay: Inhibition of mu opioid receptor (unknown origin)
[8] = Half life in mouse at 3 mg/kg, iv measured after 8 hrs by LC-MS/MS analysis; format: ADME, organism-based; settings: in vivo
[9] = biological target: Neuronal acetylcholine receptor subunit alpha-7 (Homo sapiens, UniProt P36544); assay: Inhibition of alpha7 nicotinic acetylcholine receptor (unknown origin)
[10] = Volume of distribution in mouse at 3 mg/kg, measured at 24 hrs by LC-MS analysis; format: ADME, organism-based; settings: in vivo
[11] = biological target: D(2) dopamine receptor (Homo sapiens, UniProt P14416); assay: Inhibition of dopamine D2 receptor (unknown origin)
[12] = AUC(0 to 8 h) in mouse plasma at 3 mg/kg, iv measured at 24 hrs by LC-MS/MS analysis; format: ADME, organism-based; set-up: route intravenous, time 24 hrs, dose 3 mg/kg; settings: in vivo
[13] = AUC(0 to 8 h) in mouse plasma at 30 mg/kg, po measured at 24 hrs by LC-MS/MS analysis; format: ADME, organism-based; set-up: route oral, time 24 hrs, dose 30 mg/kg; settings: in vivo
[14] = biological target: T2, Alpha-2A adrenergic receptor (Homo sapiens, UniProt P08913); assay: Inhibition of alpha 2A adrenergic receptor (unknown origin)
T2 sequence (P08913 whole entry): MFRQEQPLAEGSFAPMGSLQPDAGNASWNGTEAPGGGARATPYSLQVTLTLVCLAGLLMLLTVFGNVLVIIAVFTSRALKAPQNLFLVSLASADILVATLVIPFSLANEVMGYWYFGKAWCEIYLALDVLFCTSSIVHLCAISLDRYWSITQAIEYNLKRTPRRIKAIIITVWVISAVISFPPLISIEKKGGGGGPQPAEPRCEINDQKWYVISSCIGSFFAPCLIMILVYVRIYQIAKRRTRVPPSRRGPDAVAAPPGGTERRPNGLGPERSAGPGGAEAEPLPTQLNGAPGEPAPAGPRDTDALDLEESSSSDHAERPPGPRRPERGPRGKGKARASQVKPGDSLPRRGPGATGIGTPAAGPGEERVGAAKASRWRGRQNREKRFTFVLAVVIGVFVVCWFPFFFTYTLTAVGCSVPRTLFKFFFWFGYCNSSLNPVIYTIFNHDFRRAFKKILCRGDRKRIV

[15] = biological target: Voltage-gated inwardly rectifying potassium channel KCNH2 (Homo sapiens, UniProt Q12809); assay: Inhibition of human ERG by [3H]]Astemizole binding assay; format: toxicity
[16] = Permeability of compound at pH 7.4 incubated for 4 hrs by PAMPA assay; format: ADME; settings: read-out: permeability
[17] = biological target: T3, Alpha-2C adrenergic receptor (Homo sapiens, UniProt P18825); assay: Inhibition of alpha 2C adrenergic receptor (unknown origin)
T3 sequence (P18825 whole entry): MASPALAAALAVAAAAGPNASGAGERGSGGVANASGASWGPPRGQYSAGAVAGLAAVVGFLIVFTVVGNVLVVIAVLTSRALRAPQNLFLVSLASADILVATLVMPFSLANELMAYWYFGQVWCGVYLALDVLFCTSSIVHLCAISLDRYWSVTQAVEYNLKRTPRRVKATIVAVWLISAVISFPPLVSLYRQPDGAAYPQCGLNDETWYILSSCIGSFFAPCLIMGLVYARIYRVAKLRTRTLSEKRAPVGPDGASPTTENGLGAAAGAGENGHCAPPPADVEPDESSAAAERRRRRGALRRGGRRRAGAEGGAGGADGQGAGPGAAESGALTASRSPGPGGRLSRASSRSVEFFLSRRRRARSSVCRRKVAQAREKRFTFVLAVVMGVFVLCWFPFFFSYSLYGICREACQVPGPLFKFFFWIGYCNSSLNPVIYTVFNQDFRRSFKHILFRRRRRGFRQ

[18] = test system: Human immunodeficiency virus 1; assay: Antiviral activity against HIV-1 NL4-3(X4) pseudovirus infected in human TZM-bl cells assessed as reduction in viral infectivity measured after 48 hrs of postinfection by luminescence assay; format: functional, organism-based; settings: Human immunodeficiency virus 1, NL4-3(X4)
[19] = Cytotoxicity against human TZM-bl cells assessed as reduction in cell viability incubated for 4 hrs by […] assay; format: toxicity, cell-based; settings: read-out: TC50
[20] = Metabolic stability in mouse liver microsomes assessed compound remaining measured after 10 mins in presence of NADPH; format: ADME, Microsome; settings: read-out: Stability
[21] = Permeability of compound at pH 5.5 incubated for 4 hrs by PAMPA assay; format: ADME; settings: read-out: permeability
[22] = Metabolic stability in rat liver microsomes assessed compound remaining measured after 10 mins in presence of NADPH; format: ADME, Microsome; settings: read-out: Stability
[23] = Metabolic stability in human liver microsomes assessed compound remaining measured after 10 mins in presence of NADPH; format: ADME, Microsome; settings: read-out: Stability
[24] = Antagonist activity at mAChR (unknown origin) expressed in CCRF-CEM cells assessed as inhibition of calcium release by calcium flux assay; format: cell-based; settings: Homo sapiens
[25] = biological target: Cytochrome P450 2D6 (Homo sapiens, UniProt P10635); assay: Inhibition of recombinant human CYP2D6 using AMMC as substrate preincubated for 30 mins followed by substrate addition measured after 45 mins by fluorescence based assay; format: ADME
[26] = Antagonist activity at human CXCR4 receptor expressed in CCRF-CEM cells assessed as inhibition of CXCL12-induced calcium release by calcium flux assay; format: cell-based
[27] = test system: Human immunodeficiency virus 1; assay: Antiviral activity against HIV-1 Z1800M E4.02 (R5) pseudovirus infected in human TZM-blcells assessed as reduction in viral infectivity measured after 48 hrs of postinfection by luminescence assay; format: functional, organism-based; settings: Human immunodeficiency virus 1, Z1800M E4.02 (R5), TZM-bl

Sequence of Mu-type opioid receptor (P35372 whole entry): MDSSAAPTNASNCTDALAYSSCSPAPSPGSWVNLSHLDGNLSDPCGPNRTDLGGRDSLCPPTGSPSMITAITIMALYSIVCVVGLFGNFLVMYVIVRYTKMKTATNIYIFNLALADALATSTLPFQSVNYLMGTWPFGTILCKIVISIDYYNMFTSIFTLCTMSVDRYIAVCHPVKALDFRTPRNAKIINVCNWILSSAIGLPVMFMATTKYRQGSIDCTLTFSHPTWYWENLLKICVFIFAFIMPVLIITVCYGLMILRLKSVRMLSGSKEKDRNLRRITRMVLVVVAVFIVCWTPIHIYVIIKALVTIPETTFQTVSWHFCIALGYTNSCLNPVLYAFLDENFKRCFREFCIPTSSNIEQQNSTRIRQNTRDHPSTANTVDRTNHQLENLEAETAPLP
Sequence of Kappa-type opioid receptor (P41145 whole entry): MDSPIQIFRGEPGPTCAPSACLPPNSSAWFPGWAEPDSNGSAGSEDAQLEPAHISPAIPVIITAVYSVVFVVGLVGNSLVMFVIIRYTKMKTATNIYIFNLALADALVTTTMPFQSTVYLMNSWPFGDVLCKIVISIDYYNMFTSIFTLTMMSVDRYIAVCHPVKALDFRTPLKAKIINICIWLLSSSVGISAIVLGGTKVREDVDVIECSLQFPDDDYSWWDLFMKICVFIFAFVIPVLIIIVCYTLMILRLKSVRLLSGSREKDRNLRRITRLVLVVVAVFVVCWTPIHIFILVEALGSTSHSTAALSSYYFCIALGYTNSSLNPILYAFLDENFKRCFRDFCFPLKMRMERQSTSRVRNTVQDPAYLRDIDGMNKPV
Sequence of Voltage-gated inwardly rectifying potassium channel KCNH2 (Q12809 whole entry): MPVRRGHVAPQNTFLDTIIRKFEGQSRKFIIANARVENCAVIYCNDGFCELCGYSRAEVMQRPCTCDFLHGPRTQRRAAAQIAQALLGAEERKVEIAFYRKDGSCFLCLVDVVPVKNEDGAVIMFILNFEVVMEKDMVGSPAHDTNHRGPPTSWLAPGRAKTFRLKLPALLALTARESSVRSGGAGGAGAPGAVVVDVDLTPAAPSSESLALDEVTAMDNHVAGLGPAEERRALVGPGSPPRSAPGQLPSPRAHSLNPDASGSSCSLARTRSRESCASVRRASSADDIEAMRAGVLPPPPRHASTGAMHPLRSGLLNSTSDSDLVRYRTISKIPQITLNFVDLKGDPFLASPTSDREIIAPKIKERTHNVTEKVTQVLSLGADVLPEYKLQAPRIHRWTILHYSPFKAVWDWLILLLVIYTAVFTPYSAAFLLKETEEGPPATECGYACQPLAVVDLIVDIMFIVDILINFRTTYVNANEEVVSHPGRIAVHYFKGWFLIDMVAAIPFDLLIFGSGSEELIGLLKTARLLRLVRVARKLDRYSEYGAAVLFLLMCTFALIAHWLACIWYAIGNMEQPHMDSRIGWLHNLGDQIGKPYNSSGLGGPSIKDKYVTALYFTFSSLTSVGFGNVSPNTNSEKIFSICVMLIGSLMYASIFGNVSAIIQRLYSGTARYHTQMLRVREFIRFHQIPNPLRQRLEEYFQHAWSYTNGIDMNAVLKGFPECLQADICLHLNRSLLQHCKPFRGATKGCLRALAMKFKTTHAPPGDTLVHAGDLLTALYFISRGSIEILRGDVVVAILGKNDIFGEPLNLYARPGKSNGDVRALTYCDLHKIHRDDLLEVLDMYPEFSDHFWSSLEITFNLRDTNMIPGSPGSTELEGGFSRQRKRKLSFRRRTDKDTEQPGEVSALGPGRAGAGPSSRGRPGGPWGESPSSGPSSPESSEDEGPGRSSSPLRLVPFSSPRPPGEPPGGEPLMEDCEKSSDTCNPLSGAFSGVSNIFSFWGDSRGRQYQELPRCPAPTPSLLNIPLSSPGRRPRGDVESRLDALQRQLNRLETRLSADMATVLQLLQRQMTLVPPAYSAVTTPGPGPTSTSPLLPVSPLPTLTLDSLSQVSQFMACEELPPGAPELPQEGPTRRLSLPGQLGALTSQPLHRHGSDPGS
Sequence of D(2) dopamine receptor (P14416 whole entry): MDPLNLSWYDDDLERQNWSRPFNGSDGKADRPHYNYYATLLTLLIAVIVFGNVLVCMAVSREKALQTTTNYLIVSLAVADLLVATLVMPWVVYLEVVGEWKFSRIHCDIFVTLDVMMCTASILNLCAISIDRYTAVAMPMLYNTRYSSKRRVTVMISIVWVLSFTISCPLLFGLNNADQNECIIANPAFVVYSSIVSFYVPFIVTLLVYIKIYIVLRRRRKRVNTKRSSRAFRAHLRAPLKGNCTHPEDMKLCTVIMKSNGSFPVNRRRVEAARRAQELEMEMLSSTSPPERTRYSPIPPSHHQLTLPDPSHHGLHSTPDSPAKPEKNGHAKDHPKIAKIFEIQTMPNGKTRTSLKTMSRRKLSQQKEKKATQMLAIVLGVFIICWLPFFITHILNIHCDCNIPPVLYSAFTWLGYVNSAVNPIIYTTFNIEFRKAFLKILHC
Sequence of Cytochrome P450 2D6 (P10635 whole entry): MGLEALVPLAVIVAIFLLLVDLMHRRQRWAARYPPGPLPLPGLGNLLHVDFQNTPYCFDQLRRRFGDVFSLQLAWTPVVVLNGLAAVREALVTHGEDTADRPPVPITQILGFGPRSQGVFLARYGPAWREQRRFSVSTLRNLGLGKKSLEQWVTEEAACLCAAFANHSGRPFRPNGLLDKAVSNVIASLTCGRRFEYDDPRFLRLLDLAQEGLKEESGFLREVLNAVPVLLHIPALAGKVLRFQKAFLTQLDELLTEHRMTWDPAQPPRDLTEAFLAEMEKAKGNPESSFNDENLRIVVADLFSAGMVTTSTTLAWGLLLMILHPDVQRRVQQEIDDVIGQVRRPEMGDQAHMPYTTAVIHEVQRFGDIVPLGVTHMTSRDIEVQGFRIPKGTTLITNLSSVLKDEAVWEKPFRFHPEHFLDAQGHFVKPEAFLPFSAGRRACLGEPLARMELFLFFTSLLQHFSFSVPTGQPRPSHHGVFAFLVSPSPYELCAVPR
Sequence of Neuronal acetylcholine receptor subunit alpha-7 (P36544 whole entry): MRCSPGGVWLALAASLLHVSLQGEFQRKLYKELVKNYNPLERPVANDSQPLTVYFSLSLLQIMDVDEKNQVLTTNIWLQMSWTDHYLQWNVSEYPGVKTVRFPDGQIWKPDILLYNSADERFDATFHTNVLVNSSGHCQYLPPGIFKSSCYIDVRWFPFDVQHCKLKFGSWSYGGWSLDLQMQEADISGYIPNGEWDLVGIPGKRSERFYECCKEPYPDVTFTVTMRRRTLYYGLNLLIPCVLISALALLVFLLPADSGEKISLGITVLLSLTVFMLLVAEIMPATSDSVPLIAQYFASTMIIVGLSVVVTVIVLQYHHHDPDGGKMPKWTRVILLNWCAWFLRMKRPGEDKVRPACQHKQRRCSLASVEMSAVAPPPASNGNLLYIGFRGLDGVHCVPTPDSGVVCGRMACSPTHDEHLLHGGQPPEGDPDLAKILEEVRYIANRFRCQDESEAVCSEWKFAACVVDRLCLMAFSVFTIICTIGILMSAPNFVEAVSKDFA

| SMILES | IC50 [2] [µM] | IC50 [5] [µM] | IC50 [7] [µM] | IC50 [9] [µM] | IC50 [11] [µM] | IC50 [14] [µM] | IC50 [15] [µM] | Papp at 4 h [16] [×10⁻⁶ cm/s] | IC50 [17] [µM] | IC50 [18] [µM] | CC50 at 4 h [19] [µM] | remaining at 10 min [20] [%] | Papp at 4 h [21] [×10⁻⁶ cm/s] | remaining at 10 min [22] [%] | remaining at 10 min [23] [%] | IC50 [24] [µM] | IC50 [25] [µM] | IC50 [26] [µM] | IC50 [27] [µM] | other results |
| --- | --- | --- | --- | --- | --- | --- | --- | --- | --- | --- | --- | --- | --- | --- | --- | --- | --- | --- | --- | --- |
| NCCCCN(Cc1nc2ccccc2[nH]1)[C@H]1CCCc2cccnc21 [MAVORIXAFOR] | > 30 | 7.5 | 12 | > 30 | 4.1 | > 30 | – | – | – | – | – | – | – | – | – | – | – | – | – | bioavailability [1]: 2.42%; bioavailability [3]: 2.54%; AUC [4]: 35.1 h/ng/mL; concentration at 12 h [6]: 2.2 ng/mL; half-life [8]: 3.09 h; Vd [10]: 32.2 L/kg; AUC [12]: 415 h/ng/mL; AUC [13]: 101 h/ng/mL |
| c1cnc2c(c1)CN[C@@H](CN(CCCCNC1COC1)[C@H]1CCCc3cccnc31)C2 | 10.1 | > 17 | 21 | > 30 | > 30 | 24 | 11 | 30 | 8.8 | 0.02 | > 10 | 41 | 0.7 | 27 | 97 | > 33 | > 20 | 0.16 | > 10 | – |
| CN(CCCCN(C[C@H]1Cc2ncccc2CN1)[C@H]1CCCc2cccnc21)C1CCOCC1 | 8.9 | > 30 | > 30 | > 30 | > 30 | 28 | > 50 | 49 | 8.4 | 0.006 | > 10 | 51 | 1.5 | 64 | 100 | > 33 | > 20 | 0.11 | > 10 | – |
| c1cnc2c(c1)CN[C@@H](CN(CCCCN1CCOCC1)[C@H]1CCCc3cccnc31)C2 | > 30 | > 30 | > 30 | 11 | > 30 | 0.62 | 11 | 83 | 20 | > 0.03 | > 10 | 20 | 1.2 | 39 | 100 | > 33 | > 20 | 0.27 | > 10 | – |
